Assay results as given in publication PMC7153278, “Discovery of Membrane-Bound Pyrophosphatase Inhibitors Derived from an Isoxazole Fragment” (ACS Medicinal Chemistry Letters, 2020).

Test: Colloidal aggregation under TmPPase assay conditions (nephelometry)
Format: physicochemical
Description: Aggregation data for 5, 12k and 12l (Figure S1)
Potential colloidal aggregation in the TmPPase model system was studied at five concentrations (50 µM, 25 µM, 10 µM, 5 µM, and 1 µM). The original assay conditions were simulated, and the light scattering of potential aggregates in the mixture was studied by nephelometric methods using Nepheloskan Ascent® (Labsystems, Finland). Aggregation of the blank and compounds 5, 12k and 12l were measured as triplicates from one independent experiment at three different voltages (300 V, 400 V and 500 V) at room temperature.
5 µM and 1 µM concentrations the obtained values were close to those observed by the blank, thereby […]
Figure S1. Aggregation data for compounds 5, 12k and 12l. The data, measured in relative nephelometric units (RNU), is shown as the mean ± SD and normalized to the blank.
(1 picture or pasted object on this page, not shown here)
Experimental procedures and characterization data
Commercial analogues were retrieved by screening the ZINC12 database1 (clean drug-like subset; downloaded on 27.04.2016) using a KNIME2 workflow connected to the RDKit3 nodes. The SAR analyses and docking studies (data not shown) underlying this work were conducted using the Schrödinger molecular modeling platform (Canvas and Glide modules, respectively)4 .
Compounds 1–7, 13–20 and 24 were obtained from commercial suppliers. Supporting Information, Table S1 summarizes the compounds tested. Compound purity was >95% as determined by LC-MS and characterized by HRMS. For all commercial compounds after the initial screen, purity was tested independently from the vendor specification (a few compounds of lower purity are reported only in Supporting Information). To evaluate potential aggregation of samples in the TmPPase based assay, aggregate formation in the assay conditions was studied at five concentrations (50 μM, 25 μM, 10 μM, 5 μM, and 1 μM) for compounds 5, 12k and 12l (Figure S1).
All chemicals used were commercially available. Reactions using anhydrous conditions were conducted in oven-dried (130 °C, >24 h) glassware, purged with argon prior to use. Microwave reactions were performed using a Biotage Initiator+ instrument (Uppsala, Sweden). The progress of the reactions was monitored by thin-layer chromatography on silica gel 60-F254 aluminum plates and visualized by using a dual short/long wave (254/366 nm) UV lamp. The combined organic solutions from extractions were dried over anhydrous Na2SO4, filtered and concentrated with a rotary evaporator at reduced pressure. Flash SiO2 column chromatography was performed with automated high performance flash chromatography, Biotage Isolera™ Spektra Systems with ACI™ and Assist (ISO-1SW Isolera One) equipped with a variable UV-VIS (200–800 nm) photodiode array (Uppsala, Sweden) using SNAP KP-SIL/Ultra 10 g or 25 g cartridges and the indicated mobile phase gradient.
The reactions were not optimized and all the yields are given for purified products.
Characterization of the synthesized products were done by NMR and MS analysis. 1H and 13C NMR spectra were acquired at 298 K on a Bruker Ascend 400 MHz – Avance III HD NMR spectrometer (Bruker Corporation, Billerica, MA, USA). Chemical shifts (δ) are reported in parts per million (ppm) relative to the residual solvent signals: CDCl3 7.26 and 77.16 ppm, CD3OD 3.31 and 49.00 ppm, DMSO-d6 2.50 and 39.52 ppm for 1H and 13C NMR, respectively. […] High resolution mass (HRMS-ESI) data was reported for the calculated and experimentally […]

Structure (SMILES): CC(C)(C)c1cc(-c2cc(C(=O)Oc3ccccc3Br)no2)cc(C(C)(C)C)c1 [Compound 12l]
- aggregation (light scattering) (at 10 µM, 5 µM and 1 µM): only minor/no detectable aggregation
- aggregation (light scattering) (at 50 µM and 25 µM): showed aggregate formation
